Measured values as given in patent publication US8921267B2, “Safening 6-(trisubstituted phenyl)-4-amino-2-pyridinecarboxylate herbicide injury on cereal crops” (Dow AgroSciences LLC, priority 2008, dated 2014).

Experiments:
[1] = test system: purple deadnettle (Lamium purpureum L; LAMPU); test: Postemergence herbicidal activity, greenhouse, visual injury: purple deadnettle; type: in vivo; parameters: key: visual injury, 0–100%: 0 = no injury, 100 = complete kill
Method: (§1) Evaluation of Postemergence Herbicidal Safening in Cereal Crops
(§2) Seeds of the desired test plant species were planted in Sun Gro MetroMix® 306 planting mixture, which typically has a pH of 6.0 to 6.8 and an organic matter content of about 30 percent, in plastic pots with a surface area of 103.2 square centimeters (cm^2). When required to ensure good germination and healthy plants, a fungicide treatment and/or other chemical or physical treatment was applied. The plants were grown for 7-36 days (d) in a greenhouse with an approximate 14-hour (h) photoperiod which was maintained at about 18° C. during the day and 17° C. during the night. Nutrients and water were added on a regular basis and supplemental lighting was provided with overhead metal halide 1000-Watt lamps as necessary. The plants were employed for testing when they reached the second or third true leaf stage.
(§3) Weighed amounts of esters (methyl) or salts (TEA [triethylammonium], K [potassium]) of 4-amino-3-chloro-6-(4-chloro-2-fluoro-3-methoxyphenyl)pyridine-2-carboxylic acid (Compound 1) were dissolved in a volume of 97:3 volume/volume (v/v) acetone/dimethylsulfoxide (DMSO) to obtain stock solutions. […] The concentrated stock solutions were diluted with an aqueous mixture of 1.5% v/v of Agri-dex crop oil concentrate to provide the appropriate application rates. Compound requirements are based upon a 12 mL application volume at a rate of 187 liters per hectare (L/ha). Stocks solutions of the safeners were prepared following the same procedure. Spray solutions of the safeners and experimental compound mixtures were prepared by adding the stock solutions to the appropriate amount of dilution solution to form a 12 mL spray solution with active ingredients in two-way combinations. Formulated compounds were applied to the plant material with an overhead Mandel track sprayer equipped with 8002E nozzles calibrated to deliver 187 L/ha over an application area of 0.503 square meters (m^2) at a spray height of 18 inches (43 centimeters (cm)) above average plant canopy. Control plants were sprayed in the same manner with the solvent blank.
(§4) The treated plants and control plants were placed in a greenhouse as described above and watered by sub-irrigation to prevent wash-off of the test compounds. After 20-22 d, the condition of the test plants as compared with that of the control plants was determined visually and scored on a scale of 0 to 100 percent where 0 corresponds to no injury and 100 corresponds to complete kill.
(§5) Colby's equation was used to determine the herbicidal effects expected from the mixtures (Colby, S. R. Calculation of the synergistic and antagonistic response of herbicide combinations. Weeds 1967, 15, 20-22.).
(§6) The following equation was used to calculate the expected activity of mixtures containing two active ingredients, A and B: Expected=A+B−(A×B/100)
(§7) A=observed efficacy of active ingredient A at the same concentration as used in the mixture.
(§8) B=observed efficacy of active ingredient B at the same concentration as used in the mixture.

[2] = test system: corn poppy (Papaver rhoeas L; PAPRH); test: Postemergence herbicidal activity, greenhouse, visual injury: corn poppy; type: in vivo
Method: as §1, §2, §3, §4, §5, §6, §7, §8

[3] = test system: durum wheat (Triticum durum L; TRZDU); test: Postemergence herbicidal safening, greenhouse, visual injury: durum wheat; type: in vivo
Method: as §1, §2, §3, §4, §5, §6, §7, §8

[4] = test system: wheat (Triticum aestivum L; TRZAW); test: Postemergence herbicidal safening, greenhouse, visual injury: wheat (TRZAW); type: in vivo
Method: as §1, §2, §3, §4, §5, §6, §7, §8

[5] = test system: barley (HORVW); test: Postemergence herbicidal safening, greenhouse, visual injury: barley (HORVW)
[6] = test system: wheat (Triticum aestivum L; TRZAS); test: Postemergence herbicidal safening, greenhouse, visual injury: wheat; type: in vivo
Method: as §1, §2, §3, §4, §5, §6, §7, §8

[7] = test system: barley (Hordeum vulgare L; HORVS); test: Postemergence herbicidal safening, greenhouse, visual injury: barley; type: in vivo
Method: as §1, §2, §3, §4, §5, §6, §7, §8

[8] = test system: cleavers (Galium aparine L; GALAP); test: Postemergence herbicidal activity, greenhouse, visual injury: cleavers; type: in vivo; parameters: key: visual injury, 0–100%: 0 = no injury, 100 = complete kill
Method: as §1, §2, §3, §4, §5, §6, §7, §8

[9] = test system: wild buckwheat (Polygonum convolvulus L; POLCO); test: Postemergence herbicidal activity, greenhouse, visual injury: wild buckwheat; type: in vivo
Method: as §1, §2, §3, §4, §5, §6, §7, §8

[10] = test system: Russian thistle (Salsola iberica L; SASKR); test: Postemergence herbicidal activity, greenhouse, visual injury: Russian thistle; type: in vivo; parameters: key: visual injury, 0–100%: 0 = no injury, 100 = complete kill
Method: as §1, §2, §3, §4, §5, §6, §7, §8

[11] = test system: chickweed (Stellaria media L; STEME); test: Postemergence herbicidal activity, greenhouse, visual injury: chickweed; type: in vivo; parameters: key: visual injury, 0–100%: 0 = no injury, 100 = complete kill
Method: as §1, §2, §3, §4, §5, §6, §7, §8

[12] = test system: bird's-eye speedwell (Veronica persica L; VERPE); test: Postemergence herbicidal activity, greenhouse, visual injury: bird's-eye speedwell; type: in vivo; parameters: key: visual injury, 0–100%: 0 = no injury, 100 = complete kill
Method: as §1, §2, §3, §4, §5, §6, §7, §8

[13] = test system: wild pansy (Viola tricolor L; VIOTR); test: Postemergence herbicidal activity, greenhouse, visual injury: wild pansy; type: in vivo; parameters: key: visual injury, 0–100%: 0 = no injury, 100 = complete kill
Method: as §1, §2, §3, §4, §5, §6, §7, §8

For `O=C(C(Cl)Cl)N1CCOC12CCCCC2` [AD-67], the “LAMPU Ob (Observed values)” value ([1]; safener 4.4 g/ha alone) was 0, the “LAMPU Ob (Observed values)” value ([1]; safener 8.8 g/ha alone) was 0 and the “LAMPU Ob (Observed values)” value ([1]; safener 17.5 g/ha alone) was 0. For the same compound, the “LAMPU Ob (Observed values)” value ([1]; safener 35 g/ha alone) was 0, the “PAPRH Ob (Observed values)” value ([2]; safener 4.4 g/ha alone) was 0 and the “PAPRH Ob (Observed values)” value ([2]; safener 8.8 g/ha alone) was 0. The “PAPRH Ob (Observed values)” value ([2]; safener 17.5 g/ha alone) was 0, the “PAPRH Ob (Observed values)” value ([2]; safener 35 g/ha alone) was 0 and the TRZDU Ob (Observed values) ([3]; safener 4.4 g/ha alone) was 0%. The TRZDU Ob (Observed values) ([3]; safener 8.8 g/ha alone) was 0%, the TRZDU Ob (Observed values) ([3]; safener 17.5 g/ha alone) was 0% and the TRZDU Ob (Observed values) ([3]; safener 35 g/ha alone) was 0%. For the same compound, the TRZAW Ob (Observed values) ([4]; safener 4.4 g/ha alone) was 0%, the TRZAW Ob (Observed values) ([4]; safener 8.8 g/ha alone) was 0% and the TRZAW Ob (Observed values) ([4]; safener 17.5 g/ha alone) was 0%. The TRZAW Ob (Observed values) ([4]; safener 35 g/ha alone) was 0%, the HORVW Ob (Observed values) ([5]; safener 4.4 g/ha alone) was 0% and the HORVW Ob (Observed values) ([5]; safener 8.8 g/ha alone) was 0%. It also gave an HORVW Ob (Observed values) ([5]; safener 17.5 g/ha alone) of 0% and an HORVW Ob (Observed values) ([5]; safener 35 g/ha alone) of 0%.
`CC1(C)CN2C(=O)CCC2(C)N(C(=O)C(Cl)Cl)C1` (racemic) [Dicyclonon, (RS)-1-dichloroacetyl-3,3,8a-trimethylperhydropyrrolo[1,2]pyrimidin-6-one, reference compound] was tested, and the “TRZAS Ob” value ([6]; applied alone at 17.5 g/ha) was 0%, the “TRZAS Ob” value ([6]; applied alone at 35 g/ha) was 0% and the “TRZAS Ob” value ([6]; applied alone at 70 g/ha) was 0%. The “TRZAS Ob” value ([6]; applied alone at 140 g/ha) was 0%, the “HORVS Ob” value ([7]; applied alone at 17.5 g/ha) was 0% and the “HORVS Ob” value ([7]; applied alone at 35 g/ha) was 0%. The “HORVS Ob” value ([7]; applied alone at 70 g/ha) was 0%, the “HORVS Ob” value ([7]; applied alone at 140 g/ha) was 0% and the “GALAP Ob” value ([8]; applied alone at 17.5 g/ha) was 0%. The “GALAP Ob” value ([8]; applied alone at 35 g/ha) was 0%, the “GALAP Ob” value ([8]; applied alone at 70 g/ha) was 0% and the “GALAP Ob” value ([8]; applied alone at 140 g/ha) was 0%. For the same compound, the “LAMPU Ob (Observed values)” value ([1]; safener 4.4 g/ha alone) was 0, the “LAMPU Ob (Observed values)” value ([1]; safener 8.8 g/ha alone) was 0 and the “LAMPU Ob (Observed values)” value ([1]; safener 17.5 g/ha alone) was 0. The “LAMPU Ob (Observed values)” value ([1]; safener 35 g/ha alone) was 0, the “PAPRH Ob” value ([2]; applied alone at 17.5 g/ha) was 0% and the “PAPRH Ob” value ([2]; applied alone at 35 g/ha) was 0%. The “PAPRH Ob” value ([2]; applied alone at 70 g/ha) was 0%, the “PAPRH Ob” value ([2]; applied alone at 140 g/ha) was 0% and the “PAPRH Ob (Observed values)” value ([2]; safener 4.4 g/ha alone) was 0. For the same compound, the “PAPRH Ob (Observed values)” value ([2]; safener 8.8 g/ha alone) was 0, the “PAPRH Ob (Observed values)” value ([2]; safener 17.5 g/ha alone) was 0 and the “PAPRH Ob (Observed values)” value ([2]; safener 35 g/ha alone) was 0. The “POLCO Ob” value ([9]; applied alone at 17.5 g/ha) was 0%, the “POLCO Ob” value ([9]; applied alone at 35 g/ha) was 0% and the “POLCO Ob” value ([9]; applied alone at 70 g/ha) was 0%. The “POLCO Ob” value ([9]; applied alone at 140 g/ha) was 0%, the “SASKR Ob” value ([10]; applied alone at 17.5 g/ha) was 0% and the “SASKR Ob” value ([10]; applied alone at 35 g/ha) was 0%. For the same compound, the “SASKR Ob” value ([10]; applied alone at 70 g/ha) was 0%, the “SASKR Ob” value ([10]; applied alone at 140 g/ha) was 0% and the “STEME Ob” value ([11]; applied alone at 17.5 g/ha) was 0%. The “STEME Ob” value ([11]; applied alone at 35 g/ha) was 0%, the “STEME Ob” value ([11]; applied alone at 70 g/ha) was 0% and the “STEME Ob” value ([11]; applied alone at 140 g/ha) was 0%. For the same compound, the “VERPE Ob” value ([12]; applied alone at 17.5 g/ha) was 0%, the “VERPE Ob” value ([12]; applied alone at 35 g/ha) was 0% and the “VERPE Ob” value ([12]; applied alone at 70 g/ha) was 0%. The “VERPE Ob” value ([12]; applied alone at 140 g/ha) was 0%, the “VIOTR Ob” value ([13]; applied alone at 17.5 g/ha) was 0% and the “VIOTR Ob” value ([13]; applied alone at 35 g/ha) was 0%. For the same compound, the “VIOTR Ob” value ([13]; applied alone at 70 g/ha) was 0%, the “VIOTR Ob” value ([13]; applied alone at 140 g/ha) was 0% and the HORVW Ob (Observed values) ([5]; safener 4.4 g/ha alone) was 0%. It also gave an HORVW Ob (Observed values) ([5]; safener 8.8 g/ha alone) of 0%, an HORVW Ob (Observed values) ([5]; safener 17.5 g/ha alone) of 0% and an HORVW Ob (Observed values) ([5]; safener 35 g/ha alone) of 0%.
